Experimental findings from patent publication US20130210899A1, “Method and Therapeutic for the Treatment and Regulation of Memory Formation” (The Regents of the University of California, priority 2010, published 2013) are described below.

For series [1], the system named is C57BL/6J male mice. The series is described as follows: Novel object recognition memory (ORM) task after subthreshold training. The class given is in vivo. The note with it: 24 h test; for long-term memory formation vs vehicle-treated mice, ORM: 3, 10, 30 mg/kg s.c. after 3 min training; for dose-dependent effect on ORM: 3, 10, 30 mg/kg s.c.
Protocol: Training and testing for location-dependent object recognition memory (OLM) and novel object recognition memory (ORM) was carried out as previously described. […] The experimental apparatus was a white rectangular open field (30×23×21.5 cm).
24-h later mice were tested for memory retention (5 min) using the object recognition memory task, in which a familiar object was replaced with a novel one. A discrimination index (DI) above zero indicates a preference for the novel object.
For series [2], the system named is mice. The series is described as follows: Extinction of cocaine conditioned place preference (CPP). The class given is in vivo. The note with it: 10 mg/kg s.c. immediately following Posttest; Ext2 and Ext3. The procedure: (§1) Conditioned place preference experiments were similar to those described in Malvaez et al. (Malvaez, M., et al., Biological Psychiatry, 67, 36-43, 2010, the disclosure of which is incorporated herein by reference). Mice were briefly handled for 3 consecutive days (days 1-3). Baseline preferences were assessed by placing the animals in the three-chambered apparatus for 15 min (Pretest, day 4). Time spent in each compartment was recorded. Conditioning took place over the next 4 days with the guillotine doors closed, confining animals to a specific compartment for 30 min (days 5-8). An unbiased paradigm was used such that half of the animals were injected with cocaine (20 mg/kg, i.p.) before placement in the checkered compartment and half were injected with cocaine before placement in the white compartment (CS+). The next day, mice received 0.9% saline injection (1.0 ml/kg, i.p.) before placement in the alternate compartment (CS−). Injections were alternated for subsequent conditioning sessions. Forty-eight hours after the last conditioning session, animals had access to all 3 compartments and preference was assessed in a drug-free state (15 min, Posttest; day 10). This is also the first of the extinction sessions which occurred daily until extinction criteria were met. […]

Series [3] relates to mice. The series is described as follows: Cocaine-primed reinstatement of conditioned place preference. The class given is in vivo. The note with it: cocaine prime 10 mg/kg i.p. The procedure: as §1, with “The next day, mice received 0.9% saline injection (1.0 ml/kg, i.p.) before placement in the alternate compartment (CS−). Injections were alternated for subsequent conditioning sessions.” left out, “10).” for “10). This is also the first of the extinction sessions which occurred daily until extinction criteria were met.”
In an experiment with a similar design as described above, animals were confined to a specific compartment and given cocaine (5 mg/kg, i.p.) or saline on alternating days. […] Forty-eight hours after the last conditioning session, animals had free access to all 3 compartments and preference was assessed in a drug-free state (15 min, Posttest; day 10). […]

Series [4] has as its system mice. In words: Acquisition of cocaine conditioned place preference, treatment after conditioning sessions. The class given is in vivo. The settings on record: 10 mg/kg s.c. following each conditioning session; cocaine 5 mg/kg i.p. The method, then:
In an experiment with a similar design as described above, animals were confined to a specific compartment and given cocaine (5 mg/kg, i.p.) or saline on alternating days. Immediately following the conditioning session (30 min), mice received an injection of RGFP966 (10 mg/kg, s.c.) or vehicle and then returned to the home cage. Forty-eight hours after the last conditioning session, animals had free access to all 3 compartments and preference was assessed in a drug-free state (15 min, Posttest; day 10). CPP score indicates preference by mean±S.E.M. of time in CS+ minus CS− compartment. All groups extinguished the preference for the CS+ compartment by extinction day 6. The following day, animals received a cocaine prime (10 mg/kg, i.p.) and were placed in the test chamber (Reinstatement).
In this test, mice were conditioned with two pairings of a low dose of cocaine (5 mg/kg, i.p.) and saline. Following each conditioning session, mice received RGFP966 (10 mg/kg, s.c.) or vehicle.

The next series concerns the target T1, HDAC2 (Mus musculus, UniProt P70288).
T1 construct: from tissue; host or cells: dorsal hippocampus of C57BL/6 mice
The series is described as follows: Immunohistochemistry of dorsal hippocampus 2 hours after intrahippocampal infusion. The settings on record: 1.25 ng/side intrahippocampal infusion. The class given is in vivo, C57BL/6 mice. The procedure:
(§2) Two weeks after mice were infused with AAV-Cre or two hours after hippocampal infusion of the inhibitor, mice were anesthetized deeply with sodium pentobarbital (100 mg/kg, i.p.) and perfused transcardially with ice-cold PBS, pH 7.4, followed by ice-cold 4% paraformaldehyde in PBS, pH 7.4, using a peristaltic perfusion pump (Fisher Scientific). The brains were removed, postfixed overnight at 4° C., and then transferred to 30% sucrose for 48 hr at 4° C. Brains were frozen and cryocut to 20 μm coronal slices, and sections were stored in 0.1M PBS. Floating sections were rinsed in 0.1% Triton X-100 (Fisher Scientific) in PBS, rinsed in PBS, and then blocked for 1 hr at room temperature in 8% normal goat serum (NGS, Jackson ImmunoResearch Laboratories) with 0.3% Triton X-100 in PBS. Sections were rinsed in PBS and for single labeling they were incubated overnight at 4° C. in 2% NGS, 0.3% Triton X-100 in PBS with primary antibody. The sections were then rinsed in PBS and incubated for 2 hr at room temperature with goat anti-rabbit IgG-FITC secondary antibody (1:1000, Millipore Bioscience International). […]
(§3) Images were acquired and using an Olympus (BX51, Japan) microscope using a 4× or 20× objective, CCD camera (QImaging), and QCapture Pro 6.0 software (QImaging) and quantified with ImageJ software (NIH). […]

Another series relates to HDAC4. Described as above. The class given is in vivo, C57BL/6 mice. The note with it: 1.25 ng/side intrahippocampal infusion. The method, then: as §2, §3
The test system of a further series is H4K8Ac. The series is described as above. The note with it: 1.25 ng/side intrahippocampal infusion. The class given is in vivo, C57BL/6 mice. The method, then: as §2, §3
The test system of a further series is neuronal morphology. The series is described as follows: DAPI staining of neuronal morphology after intrahippocampal infusion. The class given is in vivo, C57BL/6 mice. The note with it: 1.25 ng/side intrahippocampal infusion, 2 hours. The method, then: as §2, with “International). Sections were rinsed again in PBS and mounted on slides using ProLong Gold antifade reagent with DAPI (Invitrogen).” for “International).”

Series [5] deals with C57BL/6J male mice. The series is described as follows: Location-dependent object recognition memory (OLM) task after subthreshold training. The class given is in vivo. The settings on record: for memory for object location vs vehicle, OLM: 1.25 ng/side intrahippocampal after 3 min training. The method, then: Training and testing for location-dependent object recognition memory (OLM) and novel object recognition memory (ORM) was carried out as previously described. (See, e.g., Roozendaal et al., J Neurosci 30:5037-5046, 2010, the disclosure of which is incorporated herein by reference.) Prior to training, mice were handled 1-2 min for 5 days and were habituated to the experimental apparatus 3 min a day for 3 consecutive days in the absence of objects. The experimental apparatus was a white rectangular open field (30×23×21.5 cm).
(See, Stefanko et al., Proc Natl Acad Sci USA 106:9447-9452, 2009, the disclosures of which are incorporated herein by reference.) During the 24-h or 7-day retention test, mice were placed in the experimental apparatus for 5 min. For object recognition memory (ORM), one copy of the familiar object (A3) and a new object (B1) were placed in the same location as during the training trial. For location-dependent object recognition memory (OLM), one copy of the familiar object (A3) was placed in the same location as during the training trial and one copy of the familiar object (A4) was placed in the middle of the box.
All combinations and locations of objects were used in a balanced manner to reduce potential biases due to preference for particular locations or objects. All training and testing trials were videotaped and analyzed by individuals blind to the treatment condition and the genotype of subjects. A mouse was scored as exploring an object when its head was oriented toward the object within a distance of 1 cm or when the nose was touching the object. The relative exploration time was recorded and expressed by a discrimination index [DI=(tnovel−tfamiliar)/(tnovel+tfamiliar)×100].
Animals were tested for short-term memory 90 min after training.
In addition, a separate group of mice were given a 3 min training period and then a 7 day retention test.

A further series concerns CBP^+/+ mice. The series is described as follows: OLM task in CBP+/+ mice after intrahippocampal infusion. The class given is in vivo. The settings on record: intrahippocampal 1.25 ng/side after 3 min training, 24 h. The method, then:
(§4) To generate a focal deletion, mice were infused with adeno associated virus expressing Cre-recombinase (AAV2/1-Cre; Penn Vector Core, University of Pennsylvania, Philadelphia, Pa.) 2 weeks prior to behavioral procedures. Mice were anesthetized with isoflurane and placed in a digital Just For Mice stereotax (Stoelting, Wood Dale, Ill.). 1.0 μl of virus was injected at a rate of 6 μl/hr via an infusion needle positioned in the dorsal CA1 area of the hippocampus (antereoposterior (AP) −2.0; mediolateral (ML) ±1.5; dorsoventral (DV) −1.5). NCoR homozygous knock-in mice (referred to as DADm mice) were generated on C57BL/6 background using homologous recombination to incorporate a single amino acid substitution (Y478A) in the NCoR deacetylase activation domain (DAD). […]
(§5) All combinations and locations of objects were used in a balanced manner to reduce potential biases due to preference for particular locations or objects. All training and testing trials were videotaped and analyzed by individuals blind to the treatment condition and the genotype of subjects. A mouse was scored as exploring an object when its head was oriented toward the object within a distance of 1 cm or when the nose was touching the object. The relative exploration time was recorded and expressed by a discrimination index [DI=(tnovel−tfamiliar)/(tnovel+tfamiliar)×100]. […]

Another series deals with CBP^KIX/KIX mice. In words: OLM task in CBP KIX/KIX mutant mice after intrahippocampal infusion. The class given is in vivo. The note with it: intrahippocampal 1.25 ng/side after 3 min training, 24 h. The method, then:
as §4, §5

Another series is described as follows: in vivo. The settings on record: mouse, brain, sc, 30 mg/kg.

T1 sequence (P70288 whole entry): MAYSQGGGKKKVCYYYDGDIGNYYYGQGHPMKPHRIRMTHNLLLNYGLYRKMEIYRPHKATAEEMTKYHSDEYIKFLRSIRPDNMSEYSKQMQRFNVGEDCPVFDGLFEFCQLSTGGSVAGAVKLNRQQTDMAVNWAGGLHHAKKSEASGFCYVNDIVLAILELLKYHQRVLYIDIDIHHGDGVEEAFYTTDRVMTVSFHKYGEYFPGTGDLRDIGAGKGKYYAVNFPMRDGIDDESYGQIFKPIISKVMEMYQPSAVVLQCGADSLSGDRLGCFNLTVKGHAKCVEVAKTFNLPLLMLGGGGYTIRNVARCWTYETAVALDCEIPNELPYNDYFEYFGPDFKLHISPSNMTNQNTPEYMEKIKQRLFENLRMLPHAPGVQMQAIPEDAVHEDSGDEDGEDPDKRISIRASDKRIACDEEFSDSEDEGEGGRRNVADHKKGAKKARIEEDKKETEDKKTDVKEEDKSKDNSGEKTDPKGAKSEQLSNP

Take `Nc1cc(F)ccc1NC(=O)/C=C/c1cnn(CC=Cc2ccccc2)c1` [RGFP966, (E)-N-(2-amino-4-fluorophenyl)-3-(1-cinnamyl-1H-pyrazol-4-yl)acrylamide]: in the series with C57BL/6J male mice [1], the “long-term memory formation vs vehicle-treated mice, ORM” value is on record as “significantly enhanced” and the “dose-dependent effect on ORM” value was “lack of an observed dose effect”. Besides, the “extinction of preference for the cocaine-paired compartment (CPP score)” value in the series with mice [2] is “rapid extinction”. The “reinstatement of preference after cocaine prime” value in the series on mice [3] (3 mg/kg received during extinction) is listed as “significant preference”. In addition, the “reinstatement of preference after cocaine prime” value in the series on mice [3] (10 mg/kg received during extinction) is on record as “did not reinstate a preference”. For the same compound, in the series on mice [4], the “effect on cocaine conditioned place preference (Posttest)” value was “does not alter”.
By Cmax is commonly meant the maximum level reached in the sampled fluid or tissue. Turning to `Cc1ccc(C(=O)NCCCCCC(=O)Nc2ccc(F)cc2N)cc1` [RGFP136, N-(6-(2-amino-4-fluorophenylamino)-6-oxohexyl)-4-methylbenzamide], on HDAC2, the “HDAC2 expression vs vehicle” value is recorded as “unchanged”. Moreover, the “HDAC4 nuclear expression vs vehicle” value with HDAC4 is on record as “loss of HDAC4 nuclear expression”. For the same compound, the “immunoreactivity for H4K8Ac vs vehicle” value with H4K8Ac was “increase”. Further, in the series on neuronal morphology, the “neuronal morphology (DAPI staining) vs vehicle” value was “does not alter neuronal morphology”. For the same compound, in the series with C57BL/6J male mice [1], the “long-term memory formation vs vehicle-treated mice, ORM” value is on record as “significantly enhanced” and the “dose-dependent effect on ORM” value is recorded as “Significant dose-dependent effects”. For the same compound, the “memory for object location vs vehicle, OLM” value in the series with C57BL/6J male mice [5] (24 hours) is recorded as “greater memory”. In the series with C57BL/6J male mice [5] (7 day retention test), the “memory for object location vs vehicle, OLM” value was “significantly greater memory”. For the same compound, the “preference for the object in the novel location vs vehicle, OLM” value with C57BL/6J male mice [5] (30 mg/kg s.c. post-training, 24 h retention test) is recorded as “significant preference”. Moreover, the “memory for novel object location vs vehicle, OLM” value with CBP^+/+ mice is “significantly greater memory”. Further, the “effect on long-term memory, OLM” value in the series on CBP^KIX/KIX mice is on record as “no effect”. In “in vivo”, this compound yielded a Cmax of about 1700 nM.
